Measured values taken from publication PMC7529893, “Structural basis for substrate recognition and chemical inhibition of oncogenic MAGE ubiquitin ligases” (Nature Communications, 2020).

Molecular target: T1, MAGE-A11:PCF11 interaction (GST-MAGE-A11 and FAM-PCF11_4) (Homo sapiens, UniProt P43364)
T1 construct: GST-MAGE-A11 MHD (human MAGE-A11 MHD amino acid 218-429); made in house; host or cells: E. coli BL21(DE3)
T1 sequence (P43364 218-429): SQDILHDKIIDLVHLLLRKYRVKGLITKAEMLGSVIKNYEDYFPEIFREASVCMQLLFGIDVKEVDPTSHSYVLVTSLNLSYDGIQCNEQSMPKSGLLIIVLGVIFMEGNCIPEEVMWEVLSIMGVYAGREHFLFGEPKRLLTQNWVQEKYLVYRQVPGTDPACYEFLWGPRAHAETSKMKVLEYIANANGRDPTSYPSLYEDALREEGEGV
Experiment: TR-FRET primary / single point screen at 15 µM
Format: binding
How it was run: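 Single-point screen at 15 µM final compound in 50 mM Tris pH 7.5, 20 mM MgCl2, 0.1 mg/ml BSA, 1 mM DTT, with 200 nM FAM-PCF11_4, 5 nM Tb-anti-GST and 5 nM GST-MAGE-A11. After 90 min at room temperature, the 520/490 nm TR-FRET ratio (340 nm excitation) gave %Inhibition against no-MAGE-A11 and DMSO controls.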

[1] = single point TR-FRET screening of quinoline compounds against MAGE-A11:PCF11, 15 µM
[2] = single point TR-FRET screening of 797 quinoline compounds against MAGE-A11:PCF11

## Clc1ccc2c(NCCCNCc3ccccn3)ccnc2c1 [SJ000523050]
[1]
  percent inhibition (TR-FRET): 4.744

## CSCCCNCCCNc1ccnc2cc(Cl)ccc12 [SJ000523051]
[1]
  percent inhibition (TR-FRET): 14.9659

## Clc1ccc2c(NCCCNCc3ccsc3)ccnc2c1 [SJ000523052]
[1]
  percent inhibition (TR-FRET): 15.2459

## CC(CCNCCCNc1ccnc2cc(Cl)ccc12)c1ccccc1 (stereo not drawn) [SJ000523053]
[1]
  percent inhibition (TR-FRET): 19.0144

## CCCCCNCCCNc1ccnc2cc(Cl)ccc12 [SJ000523057]
[1]
  percent inhibition (TR-FRET): 25.8183

## Cc1c(CNCCCNc2ccnc3cc(Cl)ccc23)c(=O)n(-c2ccccc2)n1C [SJ000523058]
[1]
  percent inhibition (TR-FRET): 5.584

## O=[N+]([O-])c1ccccc1-c1ccc(CNCCCNc2ccnc3cc(Cl)ccc23)o1 [SJ000523068]
[1]
  percent inhibition (TR-FRET): 21.6545

## Clc1cccc(-c2ccc(CNCCCNc3ccnc4cc(Cl)ccc34)o2)c1 [SJ000523069]
[1]
  percent inhibition (TR-FRET): 33.5128

## CCCN(CCCNc1ccnc2cc(C(F)(F)F)ccc12)Cc1ccc(F)cc1 [SJ000523070]
[1]
  percent inhibition (TR-FRET): 26.4363

## CCCN(CCCNc1ccnc2cc(C(F)(F)F)ccc12)Cc1ccccc1[N+](=O)[O-] [SJ000523071]
[1]
  percent inhibition (TR-FRET): -7.745

## CCCN(CCCNc1ccnc2cc(C(F)(F)F)ccc12)Cc1ccccc1OC [SJ000523072]
[1]
  percent inhibition (TR-FRET): 32.6098

## CCCN(CCCNc1ccnc2cc(C(F)(F)F)ccc12)Cc1ccccc1C(=O)O [SJ000523073]
[1]
  percent inhibition (TR-FRET): 16.8563

## CCCN(CCCNc1ccnc2cc(C(F)(F)F)ccc12)Cc1cccc2ccccc12 [SJ000523074]
[1]
  percent inhibition (TR-FRET): 14.3161

## CCCN(CCCNc1ccnc2cc(C(F)(F)F)ccc12)Cc1ccc2ccccc2c1 [SJ000523075]
[1]
  percent inhibition (TR-FRET): 11.3882

## CCCN(CCCNc1ccnc2cc(C(F)(F)F)ccc12)Cc1cccc(C)c1 [SJ000523076]
[1]
  percent inhibition (TR-FRET): 20.1719

## CCCN(CCCNc1ccnc2cc(C(F)(F)F)ccc12)Cc1ccc(N(C)C)cc1 [SJ000523077]
[1]
  percent inhibition (TR-FRET): 23.7127

## CCCN(CCCNc1ccnc2cc(C(F)(F)F)ccc12)Cc1ccc(Cl)cc1Cl [SJ000523078]
[1]
  percent inhibition (TR-FRET): 3.83

## CCCN(CCCNc1ccnc2cc(C(F)(F)F)ccc12)Cc1ccc(OC)c(OC)c1 [SJ000523079]
[1]
  percent inhibition (TR-FRET): 14.6566

## CCCN(CCCNc1ccnc2cc(C(F)(F)F)ccc12)CCCc1ccccc1 [SJ000523080]
[1]
  percent inhibition (TR-FRET): 28.0024

## CCCN(CCCNc1ccnc2cc(C(F)(F)F)ccc12)CC(C)CC (stereo not drawn) [SJ000523081]
[1]
  percent inhibition (TR-FRET): 22.2827

## CCCN(CCCNc1ccnc2cc(C(F)(F)F)ccc12)Cc1cc(C)ccc1C [SJ000523082]
[1]
  percent inhibition (TR-FRET): 21.738

## CCCCCCN(CCC)CCCNc1ccnc2cc(C(F)(F)F)ccc12 [SJ000523083]
[1]
  percent inhibition (TR-FRET): 34.9477

## Cc1cc(C)c(CN2CCC(Nc3ccnc4cc(Cl)ccc34)CC2)c(C)c1 [SJ000523084]
[2]
  percent inhibition (TR-FRET): 11.7451

## Clc1ccc2c(NC3CCN(CC4CCCCC4)CC3)ccnc2c1 [SJ000523085]
[2]
  percent inhibition (TR-FRET): 15.4273

## CCC(CC)CN1CCC(Nc2ccnc3cc(Cl)ccc23)CC1 [SJ000523086]
[2]
  percent inhibition (TR-FRET): 9.754

## Clc1ccc2c(NC3CCN(Cc4ccc5c(c4)OCO5)CC3)ccnc2c1 [SJ000523087]
[2]
  percent inhibition (TR-FRET): 7.6432

## CCCCCN1CCC(Nc2ccnc3cc(Cl)ccc23)CC1 [SJ000523088]
[2]
  percent inhibition (TR-FRET): 12.1652

## Fc1ccc(CN2CCC(Nc3ccnc4cc(Cl)ccc34)CC2)cc1F [SJ000523089]
[2]
  percent inhibition (TR-FRET): -1.958

## COc1ccc(CN2CCC(Nc3ccnc4cc(Cl)ccc34)CC2)cc1 [SJ000523090]
[2]
  percent inhibition (TR-FRET): 23.7178

## Fc1ccccc1CN1CCC(Nc2ccnc3cc(Cl)ccc23)CC1 [SJ000523091]
[2]
  percent inhibition (TR-FRET): -0.9977

## Fc1cccc(CN2CCC(Nc3ccnc4cc(Cl)ccc34)CC2)c1 [SJ000523092]
[2]
  percent inhibition (TR-FRET): 6.622

## Fc1ccc(CN2CCC(Nc3ccnc4cc(Cl)ccc34)CC2)cc1 [SJ000523093]
[2]
  percent inhibition (TR-FRET): 10.6575

## O=[N+]([O-])c1ccccc1CN1CCC(Nc2ccnc3cc(Cl)ccc23)CC1 [SJ000523094]
[2]
  percent inhibition (TR-FRET): -2.0257

## O=[N+]([O-])c1cccc(CN2CCC(Nc3ccnc4cc(Cl)ccc34)CC2)c1 [SJ000523095]
[2]
  percent inhibition (TR-FRET): 0.8927

## O=[N+]([O-])c1ccc(CN2CCC(Nc3ccnc4cc(Cl)ccc34)CC2)cc1 [SJ000523096]
[2]
  percent inhibition (TR-FRET): -4.954

## COc1ccccc1CN1CCC(Nc2ccnc3cc(Cl)ccc23)CC1 [SJ000523097]
[2]
  percent inhibition (TR-FRET): 8.596

## O=C(O)c1ccccc1CN1CCC(Nc2ccnc3cc(Cl)ccc23)CC1 [SJ000523098]
[2]
  percent inhibition (TR-FRET): -2.194

## Clc1ccc2c(NC3CCN(Cc4cccc5ccccc45)CC3)ccnc2c1 [SJ000523099]
[2]
  percent inhibition (TR-FRET): -6.179

## Clc1ccc2c(NC3CCN(Cc4ccc5ccccc5c4)CC3)ccnc2c1 [SJ000523100]
[2]
  percent inhibition (TR-FRET): 4.171

## Cc1cccc(CN2CCC(Nc3ccnc4cc(Cl)ccc34)CC2)c1 [SJ000523101]
[2]
  percent inhibition (TR-FRET): 18.5377

## CN(C)c1ccc(CN2CCC(Nc3ccnc4cc(Cl)ccc34)CC2)cc1 [SJ000523102]
[2]
  percent inhibition (TR-FRET): 13.0905

## COc1ccc(CN2CCC(Nc3ccnc4cc(Cl)ccc34)CC2)cc1OC [SJ000523103]
[2]
  percent inhibition (TR-FRET): 11.7451

## Clc1ccc2c(NC3CCN(CCCc4ccccc4)CC3)ccnc2c1 [SJ000523104]
[2]
  percent inhibition (TR-FRET): 20.6486

## CCC(C)CN1CCC(Nc2ccnc3cc(Cl)ccc23)CC1 (stereo not drawn) [SJ000523105]
[2]
  percent inhibition (TR-FRET): 11.185

## Cc1ccc(C)c(CN2CCC(Nc3ccnc4cc(Cl)ccc34)CC2)c1 [SJ000523106]
[2]
  percent inhibition (TR-FRET): 18.6767

## COc1cccc(CN2CCC(Nc3ccnc4cc(Cl)ccc34)CC2)c1 [SJ000523107]
[2]
  percent inhibition (TR-FRET): 3.1492

## CCCCCCN1CCC(Nc2ccnc3cc(Cl)ccc23)CC1 [SJ000523108]
[2]
  percent inhibition (TR-FRET): 29.2961

## CCCN(CCCNc1c2ccc(Cl)cc2nc2ccc(OC)cc12)CC1CCOC1 (stereo not drawn) [SJ000575149]
[1]
  percent inhibition (TR-FRET): -35.9356

## CCCN(CCCNc1c2ccc(Cl)cc2nc2ccc(OC)cc12)CC(C)C [SJ000575150]
[1]
  percent inhibition (TR-FRET): -21.3723

## CCCN(CCCCCC(=O)OC)CCCNc1c2ccc(Cl)cc2nc2ccc(OC)cc12 [SJ000575151]
[1]
  percent inhibition (TR-FRET): -37.4059

## CCCN(CCCNc1c2ccc(Cl)cc2nc2ccc(OC)cc12)Cc1cccnc1 [SJ000575152]
[1]
  percent inhibition (TR-FRET): -23.4028

## CCCN(CCCNc1ccnc2cc(C(F)(F)F)ccc12)Cc1nccn1C [SJ000575170]
[1]
  percent inhibition (TR-FRET): 7.1241

## CCCN(CCCNc1ccnc2cc(C(F)(F)F)ccc12)Cc1ccc2[nH]ccc2c1 [SJ000575171]
[1]
  percent inhibition (TR-FRET): 32.8899

## CCCN(CCCNc1ccnc2cc(C(F)(F)F)ccc12)Cc1scnc1C [SJ000575179]
[1]
  percent inhibition (TR-FRET): 5.164

## CCCN(CCCNc1ccnc2cc(C(F)(F)F)ccc12)Cc1cccnc1Br [SJ000575180]
[1]
  percent inhibition (TR-FRET): 5.164

## CCCN(CCCNc1ccnc2cc(C(F)(F)F)ccc12)Cc1ncc[nH]1 [SJ000575181]
[1]
  percent inhibition (TR-FRET): 9.345

## CCCN(CCCNc1ccnc2cc(C(F)(F)F)ccc12)Cc1cnn(C)c1 [SJ000575182]
[1]
  percent inhibition (TR-FRET): 15.6779

## CCCN(CCCNc1ccnc2cc(C(F)(F)F)ccc12)Cc1nccs1 [SJ000575189]
[1]
  percent inhibition (TR-FRET): 8.665

## CCCN(CCCNc1ccnc2cc(C(F)(F)F)ccc12)CC1CCOC1 (stereo not drawn) [SJ000575190]
[1]
  percent inhibition (TR-FRET): 1.787

## CCCN(CCCCCC(=O)OC)CCCNc1ccnc2cc(C(F)(F)F)ccc12 [SJ000575191]
[1]
  percent inhibition (TR-FRET): 5.6

## Clc1ccc2c(NCCCNCc3ccc[nH]3)ccnc2c1 [SJ000575192]
[1]
  percent inhibition (TR-FRET): 52.9917

## Clc1ccc2c(NCCCNCc3ccc(Br)s3)ccnc2c1 [SJ000575193]
[1]
  percent inhibition (TR-FRET): 15.3375

## O=C(C[C@H]1CC[C@]2(CC1)OO[C@]1(O2)C2CC3CC(C2)CC1C3)NCCNc1ccnc2cc(Cl)ccc12 [SJ000578361]
[2]
  percent inhibition (TR-FRET): 28.0142

## O=C(C[C@H]1CC[C@]2(CC1)OO[C@]1(O2)C2CC3CC(C2)CC1C3)NCCCNc1ccnc2cc(Cl)ccc12 [SJ000578380]
[1]
  percent inhibition (TR-FRET): 28.4789

## Clc1ccc2c(NCCNCC[C@H]3CC[C@]4(CC3)OO[C@]3(O4)C4CC5CC(C4)CC3C5)ccnc2c1 [SJ000578381]
[2]
  percent inhibition (TR-FRET): 18.3966

## O=C(C[C@H]1CC[C@]2(CC1)OO[C@]1(O2)C2CC3CC(C2)CC1C3)NCCCCNc1ccnc2cc(Cl)ccc12 [SJ000578384]
[2]
  percent inhibition (TR-FRET): 25.1182
